Results reported in US20090292012A1, “Therapeutic Agent” (priority 2005, published 2009).

Legend:
[1] = system: RAW 264.7 cells; assay: Determination of anti-foaming in macrophage (cholesterol ester accumulation with Ac-LDL); type: cell-based; conditions: Ac-LDL 20 μg/mL, 24 hours
Description: Macrophage introduces a modified LDL (such as acetyl LDL (Ac-LDL) into a cell to synthesize cholesterol ester, thereby foaming. An anti-foaming activity for the macrophage with each subject sample was determined.
RAW 264.7 cells (ATCC TIB 71) were suspended in Dulbecco's modified Eagle's medium (manufactured by Sigma, D5796) containing 10% fetal bovine serum (manufactured by Cambrex Corporation), so as to have a concentration of 4×10^5 cells/ml, and the suspension was put to each well of a 24-well microtiter plate in an amount of 1 ml per well. The cells were cultured at 37° C. overnight in the presence of 5% carbon dioxide gas. Next, the medium was exchanged with UltraCHO media (manufactured by Cambrex Corporation, B2724) and 2 μL of the dimethyl sulfoxide solution of each of the subject samples prepared in the above-mentioned Preparation Examples was added to each well so as to have a concentration shown in the following Table 1. Here, the purified ethanol extract fraction from a leaf of Peucedanum japonicum -Fr. 2-2 was used for 3′-acetoxy-4′-senecioyloxy-3′,4′-dihydroseselin in Table 1. Further, Ac-LDL (manufactured by Biomedical Technology, Inc., BT-906) at a final concentration of 20 μg/mL was added to each well, and each mixture was cultured for 24 hours. Here, there were set a group without addition of Ac-LDL and a group with addition of dimethyl sulfoxide as controls.
The total amount of cholesterol in a cell and the amount of free cholesterol were determined to calculate the amount of cholesterol ester as an index for anti-foaming for macrophage.
After the termination of the culture, the medium was removed, and the cells were washed with a 0.3% (w/v) BSA (manufactured by Sigma, A-8022) containing phosphate buffered saline and further washed with a phosphate buffered saline. The amount 0.5 mL of a solvent of hexane:isopropanol=3:2 was added to the cells. The mixture was allowed to stand at room temperature for 30 minutes, and thereafter the supernatant was collected. The procedures were repeated again, and a total of 1 mL of the supernatant was concentrated to dryness. The precipitate was dissolved in 30 μL of isopropanol, and thereafter the total amount of cholesterol contained in 10 μL of the resulting solution was determined with Cholesterol E-Test (manufactured by Wako Pure Chemical Industries, Ltd., 439-17501) and the amount of free cholesterol was determined with Free Cholesterol E-Test (manufactured by Wako Pure Chemical Industries, Ltd., 435-35801). All of the determinations were carried out twice. The amount of biosynthesis of cholesterol ester was determined by subtracting the amount of free cholesterol from the total amount of cholesterol. The anti-foaming activity was calculated in accordance with the following formula. […]

[2] = system: ACAT; assay: Determination of inhibitory activity for ACAT, rat liver microsome, [3H]oleoyl-CoA; type: biochemical; conditions: relative to 10 μM FR179254 set as 100%
Description: Four of Sprague-Dawley rats were bred for one week and thereafter sacrificed, and the livers were immediately excised. The excised livers were shortly washed with cold brine, and thereafter immersed (25 mL/a rat) into sucrose buffer (0.3 M sucrose, 50 mM Tris-HCl, 1 mM EDTA, 50 mM NaCl, pH 7.4). The resulting livers were homogenized, and the procedures of centrifuging at 10,000×g for 30 minutes and removing the formed precipitates were repeated twice for the homogenized livers. The resulting supernatant was centrifuged at 105,000×g for 70 minutes, and the precipitates were collected and suspended in an appropriate amount of 100 mM phosphate buffer (pH 7.4). The suspension was again suspended in the phosphate buffer so as to have a protein concentration of 10 mg/ml, and EDTA was added thereto so as to have a final concentration of 1 mM. Thereafter, the suspension was subjected to frozen storage at −80° C. until being used.
The enzymatic activity of ACAT was determined according to the partially modified method of Lee et al. (Planta Med., 2004, 70, 678-679).
In a 1.5 mL Eppendorf tube, 1 μL of a dimethyl sulfoxide solution of each subject sample was added to a 92 μL of a reaction aqueous solution (0.05 M potassium phosphate, 1 mM dithiothreitol, 9 mg/mL fatty acid-free bovine serum albumin, 200 μg/mL cholesterol, pH 7.4) containing 1.5 μL of the rat liver microsome prepared in item (1) of Example 2 so as to have a final concentration described in Table 2, and the mixture was incubated at 37° C. for 30 minutes. Here, the purified ethanol extract fraction from a leaf of Peucedanum japonicum -Fr. […] The radioactivity was determined with a liquid scintillation counter LS6500 (manufactured by Beckmann) using 150 μL of the resulting supernatant with Ultima Gold (manufactured by PerkinElmer Life Sciences Inc., 6013329) as a scintillation cocktail. […] The inhibitory activity for ACAT (%) of each of the subject samples was calculated in accordance with the following formula setting an inhibitory ratio upon addition of 10 μM FR179254 which is a positive control as 100%. […]

[3] = system: mouse; assay: Single oral dose toxicity in mouse; type: in vivo; conditions: 1 g/kg weight
Description: No toxicity is found even when the above-mentioned effective ingredient used in the present invention is administered in an effective dose for the exhibition of its action in a living body.

CC(=O)OC1C(OC(=O)C=C(C)C)c2c(ccc3ccc(=O)oc23)OC1(C)C (centres unmarked) [3′-acetoxy-4′-senecioyloxy-3′,4′-dihydroseselin]
inhibition at 20 µM ([1]; Mus musculus, RAW264.7, final concentration 20 μM): 19%
inhibition at 40 µM ([1]; Mus musculus, RAW264.7, final concentration 40 μM): 98%
Anti-Foaming Activity (%) ([1]; final concentration 0.1 %): 34%
Anti-Foaming Activity (%) ([1]; final concentration 0.2 %): 72%
Inhibitory Activity for ACAT (%) ([2]; final concentration 25 μM): 40%
Inhibitory Activity for ACAT (%) ([2]; final concentration 50 μM): 65%
Inhibitory Activity for ACAT (%) ([2]; final concentration 100 μM): 87%
deaths after oral administration [3]: no cases of deaths are found
